Legend:
[1] = tested on: Daudi (Burkitt's Lymphoma); experiment: Bliss excess, mean over the matrix (fraction); higher = more synergy
Outline: (§1)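 After 24 hours at 37°C and 5% CO2 in 1536-well plates, cells in DMEM/F12 or RPMI plus 10% FBS received two-drug dose matrices for 72 hours. Viability came from CellTiter-Glo 2.0 luminescence and was scaled as inhibition, anchored at 0 by vehicle wells and at 1 by blank wells. Combination Emax is taken as the second-highest inhibition in the matrix, and Bliss excess as the observed combination effect less EA + EB − EA·EB, with EA and EB the single-agent effects.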

SK-N-DZ (Neuroblastoma) [2] = experiment: as above
Outline: as §1

[3] = tested on: JJN-3 (Plasma Cell Myeloma); experiment: as above
Outline: as §1

A375 (Melanoma) = experiment: as above
Outline: as §1

[4] = tested on: GRANTA-519 (B-Cell Non-Hodgkin's Lymphoma); experiment: as above
Outline: as §1

[5] = tested on: SCC90 (Head and Neck Carcinoma); experiment: as above
Outline: as §1

[6] = tested on: NCI-H1048 (Small Cell Lung Carcinoma); experiment: as above
Outline: as §1

[7] = tested on: RPMI-8402 (T-Lymphoblastic Leukemia); experiment: as above
Outline: as §1

[8] = tested on: L-363 (Plasma Cell Myeloma); experiment: combination Emax (second highest fraction inhibited in the dose matrix, 72 h); higher = more inhibition; extreme values may be limits of the assay
Outline: as §1

SK-N-DZ (Neuroblastoma) [9] = experiment: as above
Outline: as §1

HT-144 (Melanoma) = experiment: as above
Outline: as §1

[10] = tested on: BT-474 (Breast Carcinoma); experiment: as above
Outline: as §1

[11] = tested on: NCI-H2170 (Squamous Cell Lung Carcinoma); experiment: as above
Outline: as §1

[12] = tested on: MDA-MB-175-VII (Breast Carcinoma); experiment: as above
Outline: as §1

[13] = tested on: NCI-H1648 (Lung Adenocarcinoma); experiment: as above
Outline: as §1

GCIY (Gastric Carcinoma) = experiment: as above
Outline: as §1

[14] = tested on: NCI-H2023 (Non-Small Cell Lung Carcinoma); experiment: as above
Outline: as §1

[15] = tested on: TOV-21G (Ovarian Carcinoma); experiment: as above
Outline: as §1

[16] = tested on: SCC90 (Head and Neck Carcinoma); experiment: as above
Outline: as §1

[17] = tested on: NCI-H1048 (Small Cell Lung Carcinoma); experiment: as above
Outline: as §1
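For Bliss excess, mean over the matrix in this document: after 72 h of two-drug dosing.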

| Compound | Bliss excess [1] | Bliss excess (SK-N-DZ (Neuroblastoma) [2]) | Bliss excess [3] | Bliss excess (A375 (Melanoma)) | Bliss excess [4] | Bliss excess [5] | Bliss excess [6] | Bliss excess [7] | combination Emax [8] | combination Emax (SK-N-DZ (Neuroblastoma) [9]) | combination Emax (HT-144 (Melanoma)) | combination Emax [10] | combination Emax [11] | combination Emax [12] | combination Emax [13] | combination Emax (GCIY (Gastric Carcinoma)) | combination Emax [14] | combination Emax [15] | combination Emax [16] | combination Emax [17] |
| --- | --- | --- | --- | --- | --- | --- | --- | --- | --- | --- | --- | --- | --- | --- | --- | --- | --- | --- | --- | --- |
| NC1(C(=O)N[C@@H](CCO)c2ccc(Cl)cc2)CCN(c2ncnc3[nH]ccc23)CC1 [Capivasertib] + CC(=O)c1c(C)c2cnc(Nc3ccc(N4CCNCC4)cn3)nc2n(C2CCCC2)c1=O [Palbociclib] (first compound max 10 µM, 7x7, partner max 10 µM) | 0.0065 | 0.0628 | -0.0257 | 0.0051 | -0.0273 | -0.0256 | -0.0269 | -0.0296 | 0.509 | 0.618 | 0.809 | 0.332 | 0.527 | 0.556 | 0.567 | 0.631 | 0.402 | 0.754 | 0.965 | 0.503 |
| CC1(C)CCC(CN2CCN(c3ccc(C(=O)NS(=O)(=O)c4ccc(NCC5CCOCC5)c([N+](=O)[O-])c4)c(Oc4cnc5[nH]ccc5c4)c3)CC2)=C(c2ccc(Cl)cc2)C1 [Venetoclax] + Cc1cc2ncnn2cc1Nc1ncc2c(n1)n(C1CCOCC1)c(=O)n2C [AZD7648] (first compound max 1 µM, 7x7, partner max 10 µM) | 0.004 | -0.0112 | 0.0741 | -0.0301 | 0.0007 | 0.118 | 0.0067 | 0.0235 | 0.867 | 0.399 | 0.222 | 0.197 | 0.282 | 0.243 | 0.43 | 0.558 | 0.392 | 0.195 | 0.351 | 0.59 |
| CC(=O)c1c(C)c2cnc(Nc3ccc(N4CCNCC4)cn3)nc2n(C2CCCC2)c1=O [Palbociclib] + Cn1cnc2c(F)c(Nc3ccc(Br)cc3Cl)c(C(=O)NOCCO)cc21 [Selumetinib] (first compound max 10 µM, 7x7, partner max 10 µM) | -0.0641 | -0.0848 | -0.0244 | 0.0027 | -0.0386 | -0.0058 | -0.0449 | -0.0374 | 0.301 | 0.61 | 0.896 | 0.0817 | 0.3 | 0.389 | 0.543 | 0.416 | 0.209 | 0.519 | 0.726 | 0.0486 |
| COc1cccc2c1C(=O)c1c(O)c3c(c(O)c1C2=O)C[C@@](O)(C(=O)CO)C[C@@H]3O[C@H]1C[C@H](N)[C@H](O)[C@H](C)O1 [Doxorubicin] + Cc1cc2ncnn2cc1Nc1ncc2c(n1)n(C1CCOCC1)c(=O)n2C [AZD7648] (first compound max 1 µM, 7x7, partner max 10 µM) | 0.0985 | 0.112 | 0.0238 | 0.09 | 0.102 | -0.0226 | 0.0539 | 0.0782 | 0.925 | 0.613 | 0.583 | 0.197 | 0.891 | 0.512 | 0.598 | 0.663 | 0.825 | 0.561 | 0.603 | 0.933 |
| Cn1cnc2c(F)c(Nc3ccc(Br)cc3Cl)c(C(=O)NOCCO)cc21 [Selumetinib] + C=CCn1c(=O)c2cnc(Nc3ccc(N4CCN(C)CC4)cc3)nc2n1-c1cccc(C(C)(C)O)n1 [AZD1775] (first compound max 10 µM, partner max 1 µM) | -0.0995 | -0.022 | -0.0188 | -0.0187 | 0.03 | -0.0036 | -0.0564 | -0.0344 | 0.924 | 0.971 | 0.812 | 0.346 | 0.699 | 0.558 | 0.621 | 0.475 | 0.281 | 0.702 | 0.825 | 0.862 |
| COc1nnc2ccc(N3CCC(c4ccc(OCCN5CCN(C)C(=O)[C@H]5C)cc4)CC3)nn12 [AZD5153] + CC1(C)CCC(CN2CCN(c3ccc(C(=O)NS(=O)(=O)c4ccc(NCC5CCOCC5)c([N+](=O)[O-])c4)c(Oc4cnc5[nH]ccc5c4)c3)CC2)=C(c2ccc(Cl)cc2)C1 [Venetoclax] (first compound max 1 µM, 7x7, partner max 1 µM) | -0.0458 | 0.0059 | 0.0278 | -0.057 | 0.0237 | 0.0009 | 0.0165 | 0.0135 | 0.528 | 0.694 | 0.417 | 0.353 | 0.484 | 0.475 | 0.68 | 0.505 | 0.378 | 0.623 | 0.533 | 0.492 |
| CC(=O)c1c(C)c2cnc(Nc3ccc(N4CCNCC4)cn3)nc2n(C2CCCC2)c1=O [Palbociclib] + CC1(C)CCC(CN2CCN(c3ccc(C(=O)NS(=O)(=O)c4ccc(NCC5CCOCC5)c([N+](=O)[O-])c4)c(Oc4cnc5[nH]ccc5c4)c3)CC2)=C(c2ccc(Cl)cc2)C1 [Venetoclax] (first compound max 10 µM, 7x7, partner max 1 µM) | 0.0137 | 0.0824 | -0.0357 | -0.0197 | 0.0884 | -0.0435 | -0.0339 | -0.0777 | 0.208 | 0.516 | 0.555 | 0.0591 | 0.362 | 0.171 | 0.325 | 0.17 | 0.348 | 0.519 | 0.155 | 0.287 |
| COc1cccc(OCCCN)c1-c1cc(Nc2cnc(C#N)cn2)n[nH]1 [Prexasertib] + CCc1c2c(nc3ccc(O)cc13)-c1cc3c(c(=O)n1C2)COC(=O)[C@]3(O)CC [SN-38] (first compound max 1 µM, 7x7, partner max 0.3 µM) | -0.0078 | 0.0205 | 0.0314 | -0.0224 | 0.0025 | 0.127 | 0.0152 | -0.0152 | 1 | 1 | 0.912 | 0.244 | 0.956 | 0.547 | 0.962 | 0.929 | 0.783 | 0.852 | 0.952 | 1 |
| COc1nnc2ccc(N3CCC(c4ccc(OCCN5CCN(C)C(=O)[C@H]5C)cc4)CC3)nn12 [AZD5153] + Cn1cnc2c(F)c(Nc3ccc(Br)cc3Cl)c(C(=O)NOCCO)cc21 [Selumetinib] (first compound max 1 µM, 7x7, partner max 10 µM) | -0.059 | 0.0017 | -0.0076 | 0.0241 | -0.0143 | 0.098 | -0.0108 | -0.0608 | 0.709 | 0.703 | 0.864 | 0.385 | 0.405 | 0.493 | 0.88 | 0.598 | 0.316 | 0.775 | 0.916 | 0.449 |
| CC1(C)CCC(CN2CCN(c3ccc(C(=O)NS(=O)(=O)c4ccc(NCC5CCOCC5)c([N+](=O)[O-])c4)c(Oc4cnc5[nH]ccc5c4)c3)CC2)=C(c2ccc(Cl)cc2)C1 [Venetoclax] + CCN(CCO)CCCOc1ccc2c(Nc3cc(CC(=O)Nc4cccc(F)c4)[nH]n3)ncnc2c1 [AZD2811] (first compound max 1 µM, 7x7, partner max 1 µM) | 0.005 | 0.0269 | 0.169 | -0.0095 | 0.234 | 0.169 | 0.103 | -0.0241 | 0.865 | 0.552 | 0.266 | 0.218 | 0.545 | 0.23 | 0.201 | 0.386 | 0.378 | 0.354 | 0.552 | 0.73 |
| Cn1cnc2c(F)c(Nc3ccc(Br)cc3Cl)c(C(=O)NOCCO)cc21 [Selumetinib] + CC(C)n1c(=O)n(C)c2cnc3cc(F)c(-c4ccc(OCCCN5CCCCC5)nc4)cc3c21 [AZD1390] (first compound max 10 µM, 7x7, partner max 0.3 µM) | -0.02 | -0.0207 | 0.0046 | -0.0271 | -0.0254 | 0.0124 | -0.0372 | -0.039 | 0.017 | 0.239 | 0.734 | 0.0709 | 0.0988 | 0.451 | 0.512 | 0.396 | 0.161 | 0.259 | 0.774 | 0.101 |
| CN(C)CCCOc1ccc(-c2ccc3ncc4c(c3c2)n(C2CCOCC2)c(=O)n4C)cn1 [AZD0156] + C=CCn1c(=O)c2cnc(Nc3ccc(N4CCN(C)CC4)cc3)nc2n1-c1cccc(C(C)(C)O)n1 [AZD1775] (first compound max 1 µM, partner max 1 µM) | -0.0243 | -0.0179 | -0.0271 | -0.0275 | -0.0268 | -0.0542 | -0.0815 | 0.0026 | 0.985 | 0.962 | 0.587 | 0.195 | 0.7 | 0.299 | 0.587 | 0.63 | 0.633 | 0.556 | 0.777 | 0.664 |
| Cc1c2c(nn1C)CSCc1cc(n(C)n1)CSc1cc(c3ccccc3c1)OCCCc1c(C(=O)O)n(C)c3c-2c(Cl)ccc13 [AZD5991] + C[C@@H]1COCCN1C2=NC(=NC(=C2)C3(CC3)[S@](=N)(=O)C)C4=C5C=CNC5=NC=C4 [AZD6738] (first compound max 1 µM, 7x7, partner max 10 µM) | 0.0874 | -0.0078 | -0.0071 | 0.0291 | 0.0107 | 0.0141 | 0.0445 | -0.0027 | 1 | 0.931 | 0.969 | 0.334 | 0.683 | 0.259 | 0.865 | 0.808 | 0.814 | 0.798 | 0.928 | 1 |
